Experimental data from ChEMBL document CHEMBL3400009, “A FRET-based assay for screening SIRT5 specific modulators” (Bioorg Med Chem Lett, 2015).
Activity calls are given as the source filed them. The rule behind the calls is not given here.

Legend:
[1] = molecular target: T1, NAD-dependent protein deacylase sirtuin-5, mitochondrial (Homo sapiens, UniProt Q9NXA8); experiment: Inhibition of SIRT5 (unknown origin) at 30 uM using (DABCYL)ISGASE(SuK)DIVHSE(EDANS)G peptide substrate incubated for 1 hrs followed by 1 hr incubation with trypsin and nicotinamide by FRET-based assay
Target sequence in this assay (Q9NXA8 37-310 limits assumed): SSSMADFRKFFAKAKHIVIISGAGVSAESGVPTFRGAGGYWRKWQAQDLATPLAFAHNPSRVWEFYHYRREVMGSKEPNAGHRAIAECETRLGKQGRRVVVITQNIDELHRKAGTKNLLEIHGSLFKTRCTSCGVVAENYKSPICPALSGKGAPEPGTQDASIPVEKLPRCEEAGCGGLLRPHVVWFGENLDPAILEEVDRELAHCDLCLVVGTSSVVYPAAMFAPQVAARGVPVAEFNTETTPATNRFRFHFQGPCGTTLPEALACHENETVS

[2] = molecular target: T1, NAD-dependent protein deacylase sirtuin-5, mitochondrial; experiment: Inhibition of human SIRT5 assessed as reduction in desuccinylase activity using KQTAR(SuK)STGGKA substrate
Target sequence in this assay (Q9NXA8 whole entry): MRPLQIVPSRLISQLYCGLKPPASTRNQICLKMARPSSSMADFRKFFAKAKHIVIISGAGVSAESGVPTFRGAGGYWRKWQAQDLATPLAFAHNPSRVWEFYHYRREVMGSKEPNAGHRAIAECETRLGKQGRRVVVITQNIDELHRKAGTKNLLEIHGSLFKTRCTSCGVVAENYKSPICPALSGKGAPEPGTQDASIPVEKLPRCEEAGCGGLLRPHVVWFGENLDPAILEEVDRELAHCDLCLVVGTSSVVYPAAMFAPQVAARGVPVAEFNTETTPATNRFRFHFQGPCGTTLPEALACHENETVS

| Compound | inhibition [1] | IC50 [2] |
| --- | --- | --- |
| N#C/C(=C\c1ccc(-c2cc(Cl)ccc2Cl)o1)C(=O)Nc1cccc2ncccc12 | inactive | > 100 µM |
| Cc1ccc(C(=O)Nc2ccc(S(=O)(=O)O)c3cc(S(=O)(=O)O)cc(S(=O)(=O)O)c23)cc1NC(=O)c1cccc(NC(=O)Nc2cccc(C(=O)Nc3cc(C(=O)Nc4ccc(S(=O)(=O)O)c5cc(S(=O)(=O)O)cc(S(=O)(=O)O)c45)ccc3C)c2)c1 | Active |  |
| NC(=O)c1cccnc1 | inactive |  |
| CC(NC(=O)c1ccccc1/N=C/c1c(O)ccc2ccccc12)c1ccccc1 (stereo not drawn) [SIRTINOL] | inactive | > 100 µM |
| O=C1CCc2c(ccc3ccccc23)O1 [SPLITOMICIN] | inactive | > 100 µM |
